In ChEMBL document CHEMBL5223082, “Alkyl-Aryl-Vancomycins: Multimodal Glycopeptides with Weak Dependence on the Bacterial Metabolic State” (J Med Chem, 2021):
Activity calls are given as the source filed them. The calls are words filed in the database; no cut-off is given here.

Key:
Cell membrane [1] = assay: Induction of cytoplasmic membrane permeabilization in Bacillus subtilis assessed as increase in fluorescence intensity at 10 uM measured for 30 to 40 mins by Propidium iodide staining based fluorescence analysis; type: subcellular; conditions: time 30-40 min
[2] = Toxicity in BALB/c mouse assessed as animal's survival rate at 55.5 mg/kg, iv measured for 14 days; type: organism-based; conditions: in vivo, time 14 day
Staphylococcus aureus [3] = assay: Antibacterial activity against Methicillin-resistant Staphylococcus aureus ATCC 33591 assessed as time duration of post-antibiotic effect for suppression of bacterial growth at 10XMIC incubated for 1 hr in broth solution followed by washing for drug removal and subsequent plating on nutrient agar plate; type: functional
Staphylococcus aureus [4] = assay: Antibacterial activity against stationary phase of Methicillin-resistant Staphylococcus aureus ATCC 33591 assessed as log reduction in bacterial colonies at 22 uM incubated for 24 hrs in broth solution followed by incubation on agar plate for 48 hrs by spot plating method; type: functional; conditions: time 72 hrs
Staphylococcus aureus [5] = assay: Antibiofilm activity against Methicillin-resistant Staphylococcus aureus ATCC 33591 assessed as bacterial biofilm thickness at 20 uM incubated for 24 hrs by confocal laser scanning microscopy (reference value: 8 micrometer); type: functional
Staphylococcus aureus [6] = assay: Bactericidal activity against methicillin-resistant Staphylococcus aureus ATCC 33591 assessed as log reduction in bacterial colonies at 2XMIC incubated for 6 hrs in broth solution followed by culturing for 24 hrs on agar plate by spot plating method; type: functional; conditions: time 30 hrs
Cell membrane [7] = assay: Induction of cytoplasmic membrane depolarization in Methicillin-resistant Staphylococcus aureus ATCC 33591 assessed as increase in fluorescence intensity at 10 uM measured for 35 to 40 mins by DiSC3(5) dye based fluorescence analysis; type: subcellular; conditions: time 35-40 min
Staphylococcus aureus [8] = assay: Potency index, ratio of Vancomycin MIC to test compound MIC for antibacterial activity against Vancomycin-resistant Staphylococcus aureus 12; type: functional
[9] = molecular target: T1, Septum site-determining protein MinD (Bacillus subtilis (strain 168)) (UniProt Q01464); assay: Delocalization of GFP tagged-MinD in Bacillus subtilis 168 at MIC incubated for 15 mins by fluorescence microscopy
T1 sequence (whole entry): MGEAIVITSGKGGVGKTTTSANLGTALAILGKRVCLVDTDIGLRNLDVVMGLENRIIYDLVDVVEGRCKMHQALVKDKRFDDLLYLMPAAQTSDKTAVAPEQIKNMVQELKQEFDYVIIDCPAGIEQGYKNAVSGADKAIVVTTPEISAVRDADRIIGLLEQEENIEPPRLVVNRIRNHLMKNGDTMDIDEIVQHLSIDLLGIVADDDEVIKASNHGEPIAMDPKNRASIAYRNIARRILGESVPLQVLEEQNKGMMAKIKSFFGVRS

Bacillus subtilis = assay: Antibacterial activity against Bacillus subtilis 168 assessed as concentration that requires for bacterial growth retardation measured for every 30 mins; type: functional
Staphylococcus aureus [10] = assay: Antibacterial activity against Methicillin-resistant Staphylococcus aureus ATCC 33591 assessed as inhibition of bacterial growth incubated for 18 to 24 hrs in presence of 50% human plasma by CLSI microbroth dilution method; type: functional; conditions: time 18-24 hrs
Staphylococcus aureus [11] = assay: Antibacterial activity against Methicillin-resistant Staphylococcus aureus ATCC 33591 assessed as inhibition of bacterial growth measured after 27 passages; type: functional
Enterococcus [12] = assay: Bactericidal activity against Vancomycin-resistant Enterococci assessed as log reduction in bacterial colonies at MIC incubated for 24 hrs in broth solution followed by culturing for 24 hrs on agar plate by spot plating method; type: functional; conditions: time 48 hrs
Staphylococcus aureus [13] = assay: Antibacterial activity against Methicillin-resistant Staphylococcus aureus ATCC 33591 infected in BALB/c mouse thigh infection model assessed as log reduction in bacterial load at 12 mg/kg, ip starting at 1 hr post-infection and measured at 24 hrs post-drug treatment; type: functional
Staphylococcus aureus [14] = assay: Antibacterial activity against Methicillin-resistant Staphylococcus aureus ATCC 33591 assessed as inhibition of bacterial growth preincubated compound with teichoic-acid for 1 hr followed by incubation with bacterial culture for 18 to 24 hrs by CLSI microbroth dilution method; type: functional; conditions: time 19-25 hrs
Enterococcus [15] = assay: Potency index, ratio of Vancomycin MIC to test compound MIC for antibacterial activity against Vancomycin-resistant Enterococci NR30909; type: functional, NR 30909
Cell membrane [16] = assay: Induction of cytoplasmic membrane depolarization in Vancomycin-resistant Enterococci assessed as increase in fluorescence intensity at 10 uM measured for 35 to 40 mins by DiSC3(5) dye based fluorescence analysis; type: subcellular; conditions: Enterococcus, time 35-40 min
Staphylococcus aureus [17] = assay: Antibacterial activity against Methicillin-resistant Staphylococcus aureus ATCC 33591 assessed as inhibition of bacterial growth incubated for 18 to 24 hrs by CLSI microbroth dilution method; type: functional; conditions: time 18-24 hrs
Staphylococcus aureus [18] = assay: Bactericidal activity against methicillin-resistant Staphylococcus aureus ATCC 33591 assessed as log reduction in bacterial colonies incubated for 2 hrs in broth solution followed by culturing for 24 hrs on agar plate by spot plating method; type: functional; conditions: time 26 hrs
[19] = Toxicity in BALB/c mouse assessed as adverse effects at 55.5 mg/kg, ip measured for 4 hrs; type: organism-based; conditions: in vivo
Staphylococcus aureus [20] = assay: Antibacterial activity against Methicillin-resistant Staphylococcus aureus ATCC 33591 persister cells assessed as log reduction in bacterial colonies at 9 uM incubated for 2 hrs in broth solution followed by incubation on agar plate for 48 hrs by spot plating method; type: functional; conditions: time 50 hrs
Cell membrane [21] = assay: Induction of cytoplasmic membrane permeabilization in Vancomycin-resistant Enterococci assessed as increase in fluorescence intensity at 10 uM measured for 30 to 40 mins by Propidium iodide staining based fluorescence analysis; type: subcellular; conditions: Enterococcus, time 30-40 min
Cell membrane [22] = assay: Induction of cytoplasmic membrane permeabilization in Methicillin-resistant Staphylococcus aureus ATCC 33591 assessed as increase in fluorescence intensity at 10 uM measured for 30 to 40 mins by Propidium iodide staining based fluorescence analysis; type: subcellular; conditions: time 30-40 min
Staphylococcus aureus [23] = assay: Bactericidal activity against methicillin-resistant Staphylococcus aureus ATCC 33591 assessed as log reduction in bacterial colonies incubated for 4 hrs in broth solution followed by culturing for 24 hrs on agar plate by spot plating method; type: functional; conditions: time 28 hrs
Enterococcus [24] = assay: Potency index, ratio of Vancomycin MIC to test compound MIC for antibacterial activity against Vancomycin-resistant Enterococci ATCC 51559; type: functional
Staphylococcus aureus [25] = assay: Antibacterial activity against stationary phase of Methicillin-resistant Staphylococcus aureus ATCC 33591 assessed as log reduction in bacterial colonies at 9 uM incubated for 24 hrs in broth solution followed by incubation on agar plate for 48 hrs by spot plating method; type: functional; conditions: time 72 hrs
[26] = Renal toxicity in mouse assessed as blood urea nitrogen level at 12 mg/kg, ip measured after 48 hrs; type: organism-based; conditions: in vivo
Staphylococcus aureus [27] = assay: Antibacterial activity against Vancomycin-resistant Staphylococcus aureus 4 assessed as inhibition of bacterial growth incubated for 18 to 24 hrs by CLSI microbroth dilution method; type: functional; conditions: time 18-24 hrs
Staphylococcus aureus [28] = assay: Bactericidal activity against methicillin-resistant Staphylococcus aureus ATCC 33591 assessed as log reduction in bacterial colonies at 2XMIC incubated for 24 hrs in broth solution followed by culturing for 24 hrs on agar plate by spot plating method; type: functional; conditions: time 48 hrs
Enterococcus [29] = assay: Potency index, ratio of Vancomycin MIC to test compound MIC for antibacterial activity against Vancomycin-resistant Enterococci ATCC 51575; type: functional

CCCCCCCCCCNC(=O)C[N+](C)(C)CCCNC(=O)c1ccc(CN[C@@]2(C)C[C@H](O[C@H]3[C@H](Oc4c5cc6cc4Oc4ccc(cc4Cl)[C@@H](O)[C@@H](NC(=O)[C@@H](CC(C)C)NC)C(=O)N[C@@H](CC(N)=O)C(=O)N[C@H]6C(=O)N[C@H]4C(=O)N[C@H](C(=O)N[C@H](C(=O)O)c6cc(O)cc(O)c6-c6cc4ccc6O)[C@H](O)c4ccc(c(Cl)c4)O5)O[C@H](CO)[C@@H](O)[C@@H]3O)O[C@@H](C)[C@H]2O)cc1
Activity (Cell membrane [1]): Active | survival at 336 h [2]: 100% | Time (Staphylococcus aureus [3]): 23 h | Activity (Staphylococcus aureus [4]): 7 log10CFU/ml | Activity (Staphylococcus aureus [5]): 3.5 um | Activity (Staphylococcus aureus [6]): 4.3 log10CFU/ml | Activity (Cell membrane [7]): Active | Ratio (Staphylococcus aureus [8]): 1384 | Activity [9]: 25% | EC (Bacillus subtilis): 0.06 µM | MIC (Staphylococcus aureus [10]): 0.9 µM | MIC (Staphylococcus aureus [11]): 0.9 µM | Activity (Enterococcus [12]): 0.7 log10CFU/ml | Activity (Staphylococcus aureus [13]): 2.8 log10CFU/g | MIC (Staphylococcus aureus [14]): 0.9 µM | Ratio (Enterococcus [15]): 1384 | Activity (Cell membrane [16]): Active | MIC (Staphylococcus aureus [17]): 0.9 µM | Activity (Staphylococcus aureus [18]): 2 log10CFU/ml | Activity [19]: Non-Toxic | Activity (Staphylococcus aureus [20]): 2 log10CFU/ml | Activity (Cell membrane [21]): Active | Activity (Cell membrane [22]): Active | Activity (Staphylococcus aureus [23]): 3 log10CFU/ml | Ratio (Enterococcus [24]): 1384 | Activity (Staphylococcus aureus [25]): 2.4 log10CFU/ml | Activity [26]: 20.7 mg/dL | MIC (Staphylococcus aureus [27]): 0.45 µM | Activity (Staphylococcus aureus [28]): 6 log10CFU/ml | Ratio (Enterococcus [29]): 1384
